Results on one substance are retold here after PMC13233820, “Recruitment of Mre11 to recombination sites during meiosis” (Nature Communications, 2026).

Assay [1] has as its system supercoiled pUC19 plasmid DNA. Description: In vitro condensation assay of Mre11 (fluorescence microscopy). Format: biochemical. On the procedure:
Fig. 1 Mre11 and the MRX complex assemble DNA-dependent condensates in vitro. a, c Effect of the presence of plasmid DNA on condensation of (a) Alexa488-labeled Mre11 (n = 11 and 9 fields of view for reactions without and with DNA, respectively) and (c) eGFP-tagged MRX (n = 11 (- DNA) and 9 ( + DNA)). Experiments were performed without PEG. b, d Effect of DNase I, in the absence of PEG, on (b) Mre11 (n = 9 (no treatment) and 11 (DNase I)) and (d) MRX (n = 9 (no treatment) and 11 (DNase I)) condensates. Condensates were pre-assembled for 20 min with 5.7 nM pUC19 prior to challenge. Quantification represents total foci intensity (green) in a field of view and total number of foci per 1000 µm^2 (magenta). Foci intensity is normalized to the mean intensity of samples with DNA for (a, c) and untreated samples for (b, d). […] Quantification represents total foci intensity (green) in a field of view (normalized to the mean of + PEG images) and total number of foci per 1000 µm^2 (magenta). […]
Fig. 2 The C-terminal IDR of Mre11 is required for condensation. a AlphaFold2 predicted model of Mre11 (AF-P32829-F1-v4). […] Quantification represents total fluorescence intensity (green) in a field of view and total number of foci per 1000 µm^2 (magenta). […]

The next assay has as its system pUC19 plasmid substrate. Description: Gel shift assay, plasmid DNA binding. As to conditions: 1 nM pUC19; reduced-mobility complexes (supershift) at higher concentration. As for the experimental part: Proteins were diluted to their appropriate working concentrations in their respective storage buffers. […] Reactions were assembled at 30 °C for 30 mins and resolved in a 1% agarose (SeaKem LE Agarose, Lonza) at 60 V for 120 mins at 4 °C. Gels were stained with SYBR Gold Nucleic Acid Gel Stain (S11497, Invitrogen) for 40 mins and visualized with Amersham Typhoon biomolecular imager (Cytiva).

For the next assay, the system named is Mer2 condensates. In words: Colocalization of fluorescently-labeled Mer2 and Mre11 condensates. Format: binding, Saccharomyces cerevisiae. As to conditions: condensates assembled separately on DNA then incubated together. On the procedure:
Fig. 4 Mer2 recruits Mre11 during meiosis. a Effect of 1,6-hexanediol treatment on meiotic Mre11^myc foci visualized by immunofluorescence analysis of yeast nuclear spreads 4 hours after transfer to SPM. […] At least 22 tetrads were dissected for each strain (n ≥ 88 spores). e Quantification of sub-population of cells showing discrete Mre11 foci and aggregated Mre11 foci in indicated strains. Images used for analysis were from the same experiments in (b) and (d). f Colocalization of fluorescently-labeled Mer2 with wild-type or truncated Mre11. […] The number of images analyzed for each sample were WT (n = 11), Mre11^Δ10-270 (n = 13), Mre11^Δ290-472 (n = 15), Mre11^ΔIDR (n = 10), Mre11^ΔC49 (n = 13). Error bars represent mean ± SD from the indicated (n) fields of view. p-values compared to Mre11-WT are: Mre11^Δ10-270 (0.006), Mre11^Δ290-472 (0.0003), Mre11^ΔIDR (<0.0001), Mre11^ΔC49 (<0.0001). g Colocalization of fluorescently-labeled Mre11-C49 and Mer2. Condensates were assembled by mixing 800 nM of ^mScarletMre11-C49 and 200 nM of ^eGFPMer2 for 30 min prior to imaging. […]
Proteins were diluted to a 10 × stock of their appropriate working concentrations in their respective storage buffers. […] Images were analyzed with ImageJ using a custom-made script. […] Masked foci were counted, and the intensity inside the focus mask was integrated. […] Data were analyzed using Graphpad Prism 10.4.0.

Regarding “Mre11: full-length yeast Mre11 nuclease, recombinant from Sf9 cells”, the “Condensate formation (in words)” value in assay [1] (in the presence of plasmid DNA) is reported as “form large clusters visible by fluorescence microscopy”. In addition, in assay [1] (protein titration, plasmid DNA, 5% PEG), the “Protein concentration above which foci intensity steeply increases” value is given as “above 200 nM”. Moreover, the “Protein concentration up to which fast-migrating complexes form” value in the assay with pUC19 plasmid substrate is on record as roughly 25 nM. In the assay on Mer2 condensates, the “Colocalization with Mer2 condensates (in words)” value is on record as “nearly absolute colocalization”.
